In this assay the target is T1, mICE (Mus musculus, UniProt P29452).
T1 sequence (P29452 119-402): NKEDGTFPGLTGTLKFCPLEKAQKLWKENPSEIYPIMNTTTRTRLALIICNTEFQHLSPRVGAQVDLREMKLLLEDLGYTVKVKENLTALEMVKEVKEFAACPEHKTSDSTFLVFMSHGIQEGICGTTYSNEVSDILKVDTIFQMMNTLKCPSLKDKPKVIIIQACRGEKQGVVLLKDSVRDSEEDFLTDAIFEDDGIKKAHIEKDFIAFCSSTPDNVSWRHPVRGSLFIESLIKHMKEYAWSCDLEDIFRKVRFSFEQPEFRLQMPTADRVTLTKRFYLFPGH
In words: Dissociation constant Ki for irreversible inhibitors, continuous assay (Example 1B). The assay is classed as biochemical. The note with it: compounds of Formula B and Formula C, procedure of Example 1B. The source says:
B. Determination of the Dissociation Constant K1 and Irreversible Rate Constant k3 for Irreversible Inhibitors
For the irreversible inhibition of a ICE/ced-3 Family Protease enzyme with a competitive irreversible inhibitor; using the model represented by the following formulas: [drawing 4]
The product formation at time t may be expressed as: [drawing 5]
where E, I, EI, and E-I denote the active enzyme, inhibitor, non-covalent enzyme-inhibitor complex and covalent enzyme-inhibitor adduct, respectively. The K1 value is the overall dissociation constant of reversible binding steps, and k3 is the irreversible rate constant. The [S] and Ks values are the substrate concentration and the dissociation constant of the substrate bound to the enzyme, respectively. [E]^T is the total enzyme concentration.
The above equations were used to determine the K1 and k3 values of a given inhibitor bound to a ICE/ced-3 family protease. Thus, a continuous assay was run for sixty minutes at various concentrations of the inhibitor and the substrate. The assay was formulated essentially the same as described in Example 1A above, except that the reaction was initiated by adding the enzyme to the substrate-inhibitor mixture. The K1 and k3 values were obtained by simulating the product AMC formation as a function of time according to Equation 1. The reference compound for this assay was Cbz-ValAlaAsp-CH2F.

As to `Cc1c(C(=O)NC(C(=O)NC(CC(=O)O)C(=O)COc2ccccc2C(N)=O)C(C)C)n(C)c2ccccc12` (stereo not drawn) [Example 74, N-(1,3-Dimethyl-indole-2-carbonyl)-Valinyl-3-amino-5-(2-aminocarbonyl-1-phenyl)oxy-4-oxo-pentanoic Acid], the Ki is less than 1000 nM.

`CC(C)C(NC(=O)c1cc2ccccc2n1CCCc1ccccc1)C(=O)NC(CC(=O)O)C(=O)CF` (stereo not drawn) [Example 52, N-[(1-(3′-Phenylpropyl)Indole-2-Carbonyl)Valinyl]-3-Amino-4-Oxo-5-Fluoropentanoic Acid] came in with a Ki of less than 1000 nM.

Regarding `CC(C)[C@H](NC(=O)c1cc2ccccc2n1-c1ccccc1)C(=O)NC(CC(=O)O)C(=O)CF` (stereo partly drawn) [Example 55, N-[(1-Phenylindole-2-Carbonyl)Valinyl]-3-Amino-4-Oxo-5-Fluoropentanoic Acid], the Ki is less than 1000 nM.

(Values after patent US20030119748A1 (Idun Pharmaceuticals, Inc., priority 1996, published 2003).)
